Experiment [1] deals with patient-derived mucosal melanoma cells. Briefly: Drug testing on patient-derived 3D tumor organoids in the perfusion system. The format is cell-based, human. Conditions: 96-well 3D tumor organoids with patient-derived PBMCs, FIG. 7. The method, then: (§1) Blood and tissue samples from a mucosal melanoma, a patient having the following characteristics: • person, malignant mucosal melanoma. • Tissue site: resected from the groin lymph node
96-well 3D tumor organoids were generated from the tumor sample (i.e. tumor cells and microenvironment cells, blood vessels and PBMCs were created from the samples. The tumor organoids were cultured in a plate similar to that shown in FIG. 1A. Each treatment was tested on multiple 3D organoids, each treatment corresponding to a single sequence of connected cell wells.
Multiple treatments and combinations were tested on the patient-derived mucosal melanoma cells and the patient-derived PBMCs, as summarized in FIG. 7.

Experiment [2] concerns malignant mucosal melanoma. Description: Clinical treatment of the mucosal melanoma patient. The class given is in vivo, human.
From the text: as §1
This was followed by additional cycles of nivolumab post-surgery as adjuvant therapy resulting in further PD.
The perfusion system could have anticipated the unfavorable prognosis associated with Nivolumab (which was what was originally prescribed by the doctor) within 1-2 weeks, potentially sparing the patient six months of ineffective treatment, side effects, and the high costs as well as the time in which further mutations occurred.

On to Nivolumab, for which the response in experiment [1] is 0%. In addition, the clinical outcome is given as “further PD” in experiment [2] (additional cycles post-surgery as adjuvant therapy) and “progressive disease (PD)” in experiment [2] (neoadjuvant therapy, 4 cycles). Consider Atezolizumab, for which the response in experiment [1] is 0%. For Pembrolizumab, the response in experiment [1] is 0%. Turning to `CNC(=O)c1cc(Oc2ccc(NC(=O)Nc3ccc(Cl)c(C(F)(F)F)c3)c(F)c2)ccn1` [Regorafenib], the efficacy in experiment [1] amounted to 93%. Further, the “reduction in tumor size” value in experiment [2] (within a two-week timeframe) amounted to 50%.

Values taken from patent publication US20260028571A1, “BIOREACTORS FOR PERFUSING CELLS” (Ramot at Tel-Aviv University Ltd., priority 2023, published 2026).
